Earlier results as cited in patent publication US6509371B1, “Compositions containing Bergamottin for increasing the oral bioavailability of pharmaceutical agents” (Warner-Lambert Company, priority 1997, dated 2003).
Like-named read-outs stand apart in the source and are kept apart here.

Experiments:
[1] = target: P450 3A4 (Homo sapiens, UniProt P08684); settings: in vivo; cited from earlier work
[2] = cited from earlier work

Chain of P450 3A4 (P08684 whole entry): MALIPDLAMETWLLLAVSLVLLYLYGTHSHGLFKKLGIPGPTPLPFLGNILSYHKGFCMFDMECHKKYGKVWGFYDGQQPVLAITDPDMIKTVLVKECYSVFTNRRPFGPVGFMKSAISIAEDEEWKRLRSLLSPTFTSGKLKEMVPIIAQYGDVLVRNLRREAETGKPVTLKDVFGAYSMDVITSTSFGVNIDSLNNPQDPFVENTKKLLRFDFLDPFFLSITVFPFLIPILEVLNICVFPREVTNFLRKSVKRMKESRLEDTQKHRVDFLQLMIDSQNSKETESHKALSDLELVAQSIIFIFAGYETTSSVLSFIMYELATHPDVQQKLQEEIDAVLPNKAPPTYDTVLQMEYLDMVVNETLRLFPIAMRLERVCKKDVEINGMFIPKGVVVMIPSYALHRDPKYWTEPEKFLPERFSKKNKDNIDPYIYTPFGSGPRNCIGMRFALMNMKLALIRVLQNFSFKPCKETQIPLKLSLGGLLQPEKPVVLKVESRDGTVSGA

Compound	Fraction Metabolized [1]	Oral Bioavailability ([2]; oral)	Oral Bioavailability ([2]; in vivo, po)
COc1ccc(CCN2CCC(Nc3nc4ccccc4n3Cc3ccc(F)cc3)CC2)cc1 [Astemizole]	>90%	Low	
CC[C@H]1OC(=O)[C@H](C)[C@@H](O[C@H]2C[C@@](C)(OC)[C@@H](O)[C@H](C)O2)[C@H](C)[C@@H](O[C@@H]2O[C@H](C)C[C@H](N(C)C)[C@H]2O)[C@](C)(O)C[C@@H](C)CN(C)[C@H](C)[C@@H](O)[C@]1(C)O [Azithromycin]		35-45%	
NC(=O)N1c2ccccc2C=Cc2ccccc21 [Carbamazepine]	>90%	>70%	
COc1cc(N)c(Cl)cc1C(=O)NC1CCN(CCCOc2ccc(F)cc2)CC1OC (centres unmarked) [Cisapride]		35-40%	
CC[C@H]1OC(=O)[C@H](C)[C@@H](O[C@H]2C[C@@](C)(OC)[C@@H](O)[C@H](C)O2)[C@H](C)[C@@H](O[C@@H]2O[C@H](C)C[C@H](N(C)C)[C@H]2O)[C@](C)(OC)C[C@@H](C)C(=O)[C@H](C)[C@@H](O)[C@]1(C)O [Clarithromycin]	>70%	50-55%	
CN1C[C@H](C(=O)N[C@]2(C)O[C@@]3(O)[C@@H]4CCCN4C(=O)[C@H](Cc4ccccc4)N3C2=O)C=C2c3cccc4[nH]cc(c34)C[C@H]21 [Ergotamine]	>90%	<1%	
CC[C@H]1OC(=O)[C@H](C)[C@@H](O[C@H]2C[C@@](C)(OC)[C@@H](O)[C@H](C)O2)[C@H](C)[C@@H](O[C@@H]2O[C@H](C)C[C@H](N(C)C)[C@H]2O)[C@](C)(O)C[C@@H](C)C(=O)[C@H](C)[C@@H](O)[C@]1(C)O [Erythromycin]		30-65%	
COc1cc([C@@H]2c3cc4c(cc3[C@@H](O[C@@H]3O[C@@H]5CO[C@@H](C)O[C@H]5[C@H](O)[C@H]3O)[C@H]3COC(=O)[C@H]23)OCO4)cc(OC)c1O [Etoposide]		35-70%	
CCOC(=O)C1=C(C)NC(C)=C(C(=O)OC)C1c1cccc(Cl)c1Cl (centres unmarked) [Felodipine]		15-25%	
CC(C)n1c(/C=C/C(O)CC(O)CC(=O)O)c(-c2ccc(F)cc2)c2ccccc21 (centres unmarked) [Fluvastatin]	˜90%	50-9%	
COC(=O)C1=C(C)NC(C)=C(C(=O)OC(C)C)C1c1cccc2nonc12 (centres unmarked) [Isradipine]	>90%	15-25%	
CCC(C)n1ncn(-c2ccc(N3CCN(c4ccc(OCC5COC(Cn6cncn6)(c6ccc(Cl)cc6Cl)O5)cc4)CC3)cc2)c1=O (centres unmarked) [Itraconazole]	>90%	44-55%	
Cc1ncc2n1-c1ccc(Cl)cc1C(c1ccccc1F)=NC2 [Midazolam]	>90%		40-50%
COC(=O)C1=C(C)NC(C)=C(C(=O)OCCN(C)Cc2ccccc2)C1c1cccc([N+](=O)[O-])c1 (centres unmarked) [Nicardipine]	>90%	20-30%	
COCCOC(=O)C1=C(C)NC(C)=C(C(=O)OC(C)C)C1c1cccc([N+](=O)[O-])c1 (centres unmarked) [Nimodipine]		15-10%	
COC(=O)C1=C(C)NC(C)=C(C(=O)OCC(C)C)C1c1ccccc1[N+](=O)[O-] (centres unmarked) [Nisoldipine]		˜5%	
CCOC(=O)C1=C(C)NC(C)=C(C(=O)OC)C1c1cccc([N+](=O)[O-])c1 (centres unmarked) [Nitrendipine]	>90%	16-6%	
O=c1[nH]c2ccccc2n1C1CCN(CCCC(c2ccc(F)cc2)c2ccc(F)cc2)CC1 [Pimozide]	>90%		
CC[C@H](C)C(=O)O[C@H]1C[C@H](O)C=C2C=C[C@H](C)[C@H](CC[C@@H](O)C[C@@H](O)CC(=O)O)[C@H]21 [Pravastatin]	>50%	25-10%	
CC(C)(C)NC(=O)[C@@H]1C[C@@H]2CCCC[C@@H]2CN1C[C@@H](O)[C@H](Cc1ccccc1)NC(=O)[C@H](CC(N)=O)NC(=O)c1ccc2ccccc2n1 [Saquinavir]	>90%		
CN[C@H]1CC[C@@H](c2ccc(Cl)c(Cl)c2)c2ccccc21 [Sertraline]	>90%		
